Columns and labels:
Phosphodiesterase 4 [1] = target: T1, Phosphodiesterase 4 (Homo sapiens, UniProt P27815+Q08499+Q07343+Q08493); assay: Inhibition of phosphodiesterase 4; type: protein assay
Phosphodiesterase 4 [2] = target: T1, Phosphodiesterase 4; assay: Inhibition of rolipram binding to phosphodiesterase 4; type: protein assay
Mus musculus = species: Mus musculus; assay: Inhibition of LPS-induced TNF-alpha production in mice after 30 min peroral dose; type: functional; details: po, 0.5 h

Row | IC50 (Phosphodiesterase 4 [1]) [nM] | Ki (Phosphodiesterase 4 [2]) [nM] | Compound | ED50 (Mus musculus) [mg/kg]
1 | 1 | 6.5 | COc1cc2c(cc1OC)C(c1ccnc(-n3nc(-c4cccnc4)c4ccccc4c3=O)c1)=N[C@H](CO)C2.Cl | 0.52
2 | 0.7 |  | COc1cc2cc(CO)c(CO)c(-c3ccnc(-n4nc(-c5cccnc5)c5ccccc5c4=O)c3)c2cc1OC.Cl | 1.2
3 | 0.3 | 1.7 | COc1cc2cc(CO)nc(-c3ccnc(-n4nc(-c5nccs5)c5ccccc5c4=O)c3)c2cc1OC.Cl | 0.26
4 | 2 | 3.1 | COc1cc2c(cc1OC)C(c1ccnc(-n3nc(Cc4cccnc4)c4ccccc4c3=O)c1)=N[C@H](CO)C2.Cl | 
5 | 0.6 | 1.4 | COc1cc2cc(CO)nc(-c3ccnc(-n4nc(-c5cccnc5)c5ccccc5c4=O)c3)c2cc1OC.Cl | 
6 | 0.5 | 1.8 | COc1cc2c(cc1OC)C(c1ccnc(-n3ccc4c(OCCN5CCOCC5)cccc4c3=O)c1)=N[C@H](CO)C2.Cl | 0.13
7 | 0.4 | 1.5 | COc1cc2c(cc1OC)C(c1ccnc(-n3ccc4c(OCc5cccnc5)cccc4c3=O)c1)=N[C@H](CO)C2.Cl | 2.4

The remaining lines, values behind:

Row | Compound | IC50 (Phosphodiesterase 4 [1]) [nM] | Ki (Phosphodiesterase 4 [2]) [nM] | ED50 (Mus musculus) [mg/kg]
8 | COc1cc2c(cc1OC)C(c1ccnc(-n3nc(-c4cncnc4)c4ccccc4c3=O)c1)=N[C@H](CO)C2.Cl | 3 | 5.4 | 
9 | COc1ccc(C(=O)Nc2c(Cl)cncc2Cl)cc1OC1CCCC1 |  |  | 0.72
10 | COc1cc2cc(CO)cc(-c3ccnc(-n4nc(-c5cccnc5)c5ccccc5c4=O)c3)c2cc1OC.Cl |  | 3 | 
11 | COc1cc2cc(CO)nc(-c3ccnc(-n4nc(-c5cccs5)c5ccccc5c4=O)c3)c2cc1OC.Cl | 0.3 | 1.4 | 1.6
12 | COc1ccc(C2CNC(=O)C2)cc1OC1CCCC1 (stereo not drawn) [ROLIPRAM] |  |  | 2.6
13 | COc1cc2nc(CO)c(CO)c(-c3ccnc(-n4nc(-c5cccnc5)c5ccccc5c4=O)c3)c2cc1OC.Cl | 70 | 120 | 

Reference: ChEMBL document CHEMBL1136106, “Synthesis and biological activities of 1-pyridylisoquinoline and 1-pyridyldihydroisoquinoline derivatives as PDE4 inhibitors” (Bioorg Med Chem Lett, 2003)
